Here are results for 36 compounds from patent US6384051B1, “Method of treating or inhibiting colonic polyps” (American Cyanamid Company, priority 2000, dated 2002).

The first data set deals with min mouse.
Assay: not given
The conditions noted are these: background statement on NSAID's; cited from earlier work.
On to `CCc1cccc2c3c([nH]c12)C(CC)(CC(=O)O)OCC3` (stereo not drawn) [etodoloc], for which the “intestinal polyp formulation in min mice (NSAID's)” value is “can reduce (but not eradicate) intestinal polyp formulation”.
As to `CC1=C(CC(=O)O)c2cc(F)ccc2/C1=C\c1ccc([S+](C)[O-])cc1` (stereo not drawn) [sulindac], the “intestinal polyp formulation in min mice (NSAID's)” value is listed as “can reduce (but not eradicate) intestinal polyp formulation”.

The test system of the next data set is Min mouse (C57BL/6J-Min/+). The data set is described as follows: in vivo test procedure emulating FAP: Min mouse (C57BL/6J-Min/+), compound blended with AIN-93G chow for 60 days, intestinal polyps counted on day 61.
Conditions: not given
Here is the method:
The polyps that develop in Min mice express EGFR and have activated COX-2.
On day 61, the animals were euthanized with CO2 inhalation, and the entire intestinal tract from stomach to anus was removed. The intestinal tract was injected with Bouins fixative, and allowed to fix for several days. The intestinal tracts were then opened and the number of polyps counted.
As for `CCOc1cc2ncc(C#N)c(Nc3ccc(F)c(Cl)c3)c2cc1NC(=O)C=CCN(C)C` [Example 399, 4-Dimethylamino-but-2-enoic acid [4-(3-chloro-4-fluoro-phenylamino)-3-cyano-7-ethoxy-quinolin-6-yl]-amide], the “reducing polyp numbers in mice” value is recorded as “effective in significantly reducing polyp numbers”.

System in another data set: not given
Assay: not given
Conditions: not given
With `N#Cc1cnc2cc(O)c(O)cc2c1Nc1ccc(Cl)cc1F` [Example 373, 4-(4-Chloro-2-fluoro-phenylamino)-6,7-dihydroxy-quinoline-3-carbonitrile], the melting point was in the range of 270 to 272 °C.
Same read-out and setting: the figure for `CC(C)N(C)CC#CC(=O)Nc1ccc2ncc(C#N)c(Nc3cccc(Br)c3)c2c1` [Example 191, N-[4-[(3-Bromophenyl)amino]-3-cyano-6-quinolinyl]-4-(N-isopropyl-N-methylamino)-2-butynamide] is 124 to 126 °C; for `COc1ccc2ncc(C#N)c(Nc3ccc(C)c(O)c3)c2c1` [Example 284, 4-(3-Hydroxy-4-methyl-phenylamino)-6-methoxy-quinoline-3-carbonitrile] it is > 250 °C (dec.).
The same measure, in the same setting: the figure for `CCN(CC)CC#CC(=O)Nc1ccc2ncc(C#N)c(Nc3cccc(Br)c3)c2c1` [Example 187, N-[4-[(3-Bromophenyl)amino]-3-cyano-6-quinolinyl]-4-diethylamino-2-butynamide] is 133 to 135 °C; for `COc1cc2ncc(C#N)c(Nc3cccc(C(F)(F)F)c3)c2cc1OC` [Example 42, 4-[(3-Trifluoromethylphenyl)amino]-6,7-dimethoxy-3-quinolinecarbonitrile] it is 190 to 193 °C.
For `COc1cc2ncc(C#N)c(Nc3cc(Br)c(O)c(Br)c3)c2cc1OC` [Example 291, 4-(3,5-Dibromo-4-hydroxy-phenylamino)-6,7-dimethoxy-quinoline-3-carbonitrile], the melting point is over 250 °C.
The same measure, in the same setting: then `COc1cc2ncc(C#N)c(Nc3ccccc3CCO)c2cc1OC` [Example 301, 4-[2-(2-Hydroxy-ethyl)-phenylamino]-6,7-dimethoxy-quinoline-3-carbonitrile], with 159 to 162 °C; and `COc1ccc(Nc2c(C#N)cnc3c(OC)cccc23)cc1O` [Example 279, 4-(3-Hydroxy-4-methoxy-phenylamino)-8-methoxy-quinoline-3-carbonitrile], with 138 to 140 °C (dec.); and `CCN1CCN(CC#CC(=O)Nc2ccc3ncc(C#N)c(Nc4cccc(Br)c4)c3c2)CC1` [Example 188, N-[4-[(3-Bromophenyl)amino]-3-cyano-6-quinolinyl]-4-(N-ethylpiperazino)-2-butynamide], with 161 °C (dec.).
`COc1cc2ncc(C#N)c(Nc3cccc(C(=O)O)c3C)c2cc1OC` [Example 368, 3-(3-Cyano-6,7-dimethoxy-quinolin-4-ylamino) -2-methyl-benzoic acid] displayed a melting point of 242 to 245 °C.
Turning to `COc1cc2ncc(C#N)c(Nc3cc(Cl)ccc3O)c2cc1OC` [Example 290, 4-(5-Chloro-2-hydroxy-phenylamino)-6,7-dimethoxy-quinoline-3-carbonitrile], the melting point was over 250 °C.
In the case of `CN(C)CC#CC(=O)Nc1ccc2ncc(C#N)c(Nc3cccc(Br)c3)c2c1` [Example 59, N-[4-[(3-Bromophenyl)amino]-3-cyano-6-quinolinyl]-4-dimethylamino-2-butynamide], the melting point lay within 114 to 118 °C.
Take `COc1cc2c(Nc3ccc(O)cc3C)c(C#N)cnc2cc1OCCCN1CCOCC1` [Example 312, 4-(4-Hydroxy-2-methyl-phenylamino)-6-methoxy-7-(3-morpholin-4yl-propoxy)-quinoline-3-carbonitrile]: the melting point was in the range of 120 to 126 °C.
The same measure, in the same setting: the figure for `COc1cc2ncc(C#N)c(Nc3ccc(Cl)cc3C)c2cc1OC` [Example 336, 4-(4-Chloro-2-methylphenylamino)-6,7-dimethoxyquinoline-3-carbonitrile] is 227 to 229 °C; for `COc1cc2ncc(C#N)c(Nc3ccc(O)cc3C)c2cc1OC` [Example 292, 4-(4-Hydroxy-2-methyl-phenylamino)-6,7-dimethoxy-quinoline-3-carbonitrile] it is over 250 °C; for `COc1cccc2c(Nc3cccc(Br)c3)c(C#N)cnc12` [Example 274, 4-[(3-Bromophenyl)amino]-8-methoxy-3-quinolinecarbonitrile] it is 210 to 212 °C.
On to `CN(C)CC#CC(=O)Nc1ccc2ncc(C#N)c(Nc3cccc(Br)c3)c2c1` [Example 329, N-[4-[(3-Bromophenyl)amino]-3-cyano-6-quinolinyl]-4-dimethylamino-2-butynamide], for which the melting point is 180 °C (dec.).
On the same count and under the same terms, the figure for `COc1ccc(OC)c2c(Nc3cccc(Br)c3)c(C#N)cnc12` [Example 240, 4-(3-Bromo-phenylamino)-5,8-dimethoxy-quinoline-3-carbonitrile] is 72 to 74 °C; for `N#Cc1cnc2ccc(NC(=O)C#CCN3CCOCC3)cc2c1Nc1cccc(Br)c1` [Example 58, N-[4-[(3-Bromophenyl)amino]-3-cyano-6-quinolinyl]-4-morpholino-2-butynamide] it is 112 to 115 °C.
On to `COc1ccc2ncc(C#N)c(Nc3ccc(Cl)cc3F)c2c1` [Example 283, 4-(4-Chloro-2-fluoro-phenylamino)-6-methoxy-quinoline-3-carbonitrile], for which the melting point is over 250 °C.
`COc1cc2ncc(C#N)c(Nc3ccc(C(N)=O)cc3)c2cc1OC` [Example 289, 4-(3-Cyano-6,7-dimethoxy-quinolin-4-ylamino)-benzamide]: the melting point is over 250 °C.
For the compound `COc1cc2ncc(C#N)c(Nc3ccccc3C(N)=O)c2cc1OC` [Example 297, 2-(3-Cyano-6,7-dimethoxy-quinolin-4-ylamino)-benzamide], the melting point lay in the range of 238 to 240.5 °C.
In the case of `COc1cc2c(Nc3cccc(Br)c3)c(C#N)cnc2c(OC)c1OC` [Example 241, 4-(3-Bromo-phenylamino)-6,7,8-trimethoxy-quinoline-3-carbonitrile], the melting point lay in the range of 211 to 213 °C.
For the compound `COc1cc2c(Nc3ccc(C)c(O)c3)c(C#N)cnc2c(OC)c1OC` [Example 233, 4-(3-Hydroxy-4-methyl-phenylamino)-6,7,8-trimethoxy-quinoline-3-carbonitrile], the melting point is 200 °C (dec.).
Compound `COc1cc2ncc(C#N)c(Oc3cccc(Br)c3)c2cc1OC` [Example 49, 4-(3-Bromophenoxy)-6,7-dimethoxy-3-quinolinecarbonitrile] returned a melting point of 187 to 190 °C.
On to `COc1cccc2c(Nc3ccc(Cl)cc3F)c(C#N)cnc12` [Example 275, 4-(4-Chloro-2-fluoro-phenylamino)-8-methoxy-quinoline-3-carbonitrile], for which the melting point is 127 °C (dec.).
The same measure, in the same setting: the figure for `COc1cc2c(Nc3cccc(N(C)C)c3)c(C#N)cnc2c(OC)c1OC` [Example 232, 4-(3-Dimethylamino-phenylamino)-6,7,8-trimethoxy-quinoline-3-carbonitrile] is 142 to 144 °C; for `CN(C)CC#CC(=O)Nc1ccc2ncc(C#N)c(Nc3ccc(F)c(Br)c3)c2c1` [Example 197, N-[4-[(3-Bromo-4-fluorophenyl)amino]-3-cyano-6-quinolinyl]-4-dimethylamino-2-butynamide] it is 228 to 231 °C; for `COc1cc2ncc(C#N)c(Nc3ccc(C)cc3O)c2cc1OC` [Example 287, 4-(2-Hydroxy-4-methyl-phenylamino)-6,7-dimethoxy-quinoline-3-carbonitrile] it is over 250 °C.
Regarding `COc1cc2ncc(C#N)c(Nc3c(C)cccc3O)c2cc1OC` [Example 246, 4-(2-Hydroxy-6-methyl-phenylamino)-6,7-dimethoxy-quinoline-3-carbonitrile], the melting point lay within 245 to 247 °C.
Compound `COCC#CC(=O)Nc1ccc2ncc(C#N)c(Nc3ccc(F)c(Cl)c3)c2c1` [Example 194, N-[4-[-(3-Chloro-4-fluorophenyl)amino]-3-cyano-6-quinolinyl]-4-methoxy-2-butynamide] came in with a melting point of 170 to 171 °C.
Compound `COc1cc2c(Nc3cccc(Br)c3)c(C#N)cnc2cc1OCCCN1CCOCC1` [Example 313, 4-(3-Bromo-phenylamino)-6-methoxy-7-(3-morpholin-4-yl-propoxy)-quinoline-3-carbonitrile] yielded a melting point of 115 to 118 °C.
With `CN1CCN(CC#CC(=O)Nc2ccc3ncc(C#N)c(Nc4cccc(Br)c4)c3c2)CC1` [Example 190, N-[4-[(3-Bromophenyl)amino]-3-cyano-6-quinolinyl]-4-(N-methylpiperazino)-2-butynamide], the melting point is 190 °C (dec.).

A word on the melting point: it is the temperature, or range, at which the solid turns liquid.
